Common to all, as to assay: GOT/MDH-coupled aspartate release, NADH oxidation; Hanes-Woolf
What all share (format): biochemical, Pinus pinaster
What all share (conditions): 50 mM HEPES pH 7.8, 50 mM KCl

In experiment [1] the test system is T1, PpASPG1.
T1 construct: full ORF (1128 nt, 375 residues incl. 77-residue variable loop), expressed in Nicotiana benthamiana; conventional purification, untagged by the measured beta mass; autocleaved before Thr245 into alpha (26,431 Da, Met1 removed) and beta (13,325 Da); plant ASPG (alpha beta)2
From the text:
GOT/MDH-coupled aspartate release, NADH oxidation; Hanes-Woolf on […]1 | changes in the Km and Vmax values for L-Asn and β-L-Asp-L-Ala (Supplementary Table S3)

For experiment [2], the system named is T1, PpASPG1. The source holds these as a separate data set.
Another experiment deals with T2, PpASPG3.
T2 construct: full ORF (918 nt, 305 residues) with C-terminal HA and poly-His tag, expressed in Nicotiana benthamiana, Ni-TED purified; partly processed into alpha and beta subunits

Consider `NC(=O)C[C@H](N)C(=O)O` [L-Asn], for which the Km with PpASPG1 [1] (deletion variant with C-terminal HA and poly-His tag, partly unprocessed precursor) is 7.16 ± 0.88 mM; in the experiment on PpASPG1 [2], 4.58 ± 0.03 mM; with PpASPG3 it was 6.12 ± 0.96 mM.
Take `C[C@H](NC(=O)C[C@H](N)C(=O)O)C(=O)O` [β-L-Asp-L-Ala]: the figures for the Michaelis constant (Km) with PpASPG1 [1], in the experiment on PpASPG1 [2] and in the experiment on PpASPG3 were 9.44 ± 0.82 mM, 56.7 ± 13.9 mM and 1.04 ± 0.21 mM, respectively.

The term Km denotes the concentration of substrate that gives half-maximal velocity.

Values taken from paper PMC5481357, “Characterization of Three L-Asparaginases from Maritime Pine (Pinus pinaster Ait.)” (Frontiers in Plant Science, 2017).
